Here are results for 24 compounds from PubChem BioAssay (NCI).

“And” between values parts separate entries of the source, which are not always exact repeats. Equal values may be shown once.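 Cells were grown in 96-well plates and exposed to each compound for 48 hours at five concentrations; endpoints were interpolated linearly between bracketing concentrations, or set to the highest concentration if not reached. GI50 is the concentration that inhibits growth by half. TGI is the concentration that stops growth completely.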

What all share (test): NCI-60 cell line screen, 48 h
Test [1] has as its system NCI-H522 lung.
Test [2] deals with HOP-92 NSCLC.
In test [3] the test system is SF-539 CNS.
In test [4] the test system is MOLT-4 leukemia.
Test [5] concerns NCI-H226 lung.
For test [6], the system named is U251 CNS.
Test [7] deals with HL-60(TB) leukemia.
The subject of test [8] is HCC-2998 colon.
Test [9] has as its system ACHN renal.
Test [10] has as its system HOP-18 NSCLC.

For `CCc1c(-c2coc(CC/C(C)=C/c3ccccc3)n2)oc(OC)c(C)c1=O`, the TGI in test [1] was 15.3 µM; in test [2] it was more than 100 µM; in test [3], more than 65 µM; in test [4], more than 100 µM; in test [5], more than 100 µM; in test [6], more than 53.9 µM. Besides, the TGI was 97.9 µM in test [7], more than 100 µM in test [8], more than 71.4 µM in test [9] and more than 100 µM in [10].

In the case of `COc1cc(C(=C2SCCS2)c2nccc3cc(OC)c(OC)cc23)c([N+](=O)[O-])cc1OC`, the TGI in test [1], in test [2], in [3], in test [4], in [5] and in test [6] was more than 100 µM each time. Also, the TGI in test [7] is 94.6 µM; in test [8], more than 100 µM; in test [9] it was more than 100 µM; in [10], more than 100 µM.

Take `CN(Cc1ccccc1)c1nc(=[N+](C)C)ss1`: the TGI in [1], in test [2], in test [3], in test [4], in test [5] and in test [6] was more than 100 µM each time. Moreover, the TGI in [7], in test [8], in [9] and in test [10] was more than 100 µM in each case.

With `c1ccc([P+](CCC[P+](c2ccccc2)(c2ccccc2)c2ccccc2)(c2ccccc2)c2ccccc2)cc1`, the GI50 is 3.53 µM in test [1]; 15.1 µM in test [3]; 35.9 µM in test [4]; 32.7 µM in test [5]; 2.27 µM in test [7]. Further, the TGI in test [1] is > 100 µM and 24.8 µM; in test [2] it was 82.2 µM; in test [3], more than 100 µM; in test [4], more than 100 µM; in test [5] it was 93.8 µM and > 100 µM; in test [6], more than 100 µM. Also, the TGI in test [7] is 36.9 µM and 6.75 µM; in test [8] it was more than 100 µM; in test [9] it was more than 100 µM; in [10], more than 100 µM.

For the compound `COc1cc(CCC(=O)NS(=O)(=O)c2ccccc2)cc(OC)c1OC`, the TGI in test [1], in test [2], in test [3], in test [4], in test [5] and in [6] was more than 100 µM throughout. Further, the TGI in test [7], in test [8], in test [9] and in test [10] was more than 100 µM in each case.

With `CC(C)(C)[Si](Nc1ccccc1)(c1ccccc1)c1ccccc1`, the TGI is 28.3 µM in test [2]; 25 µM in test [3]; 26.2 µM in [4]; 29.8 µM in test [5]; 26.8 µM in test [6]; 31.3 µM in [7]. In addition, the TGI in test [8] was 30.7 µM; in test [9] it was 30.1 µM; in test [10], 26.7 µM.

On to `CCCCCCCCCCCCCCCCCCOCC1(COP(=O)([O-])OCC[N+](C)(C)C)CCCO1` (stereo unspecified), for which the TGI in test [1] amounted to 6.23 µM; in test [2], 6.09 µM; in [3], 29.4 µM; in [4], 4.84 µM; in [5], 20.1 µM; in [6] it was 7.03 µM. The TGI in test [7] was 5.24 µM; in [8] it was 4.68 µM; in test [9] it was 19.4 µM; in [10], 10.9 µM.

With `CN(C)C(=S)/N=c1\ssc(=S)n1Cc1ccccn1`, the TGI in test [1] is 4.17 µM; in [2], 64.5 µM; in [3] it was 45.5 µM; in test [4] it was more than 100 µM; in test [5], more than 100 µM; in test [6], more than 100 µM. Further, the TGI was more than 19.8 µM in test [7], more than 100 µM in [8], more than 100 µM in [9] and more than 100 µM in [10].

For `CN(C)NC(=S)NC12CC3CC(CC(C3)C1)C2`, the TGI in test [1], in test [2], in [3], in test [4], in test [5] and in test [6] was more than 100 µM each time. The TGI in test [7], in test [8], in test [9] and in [10] was more than 100 µM throughout.

Consider `CC(=O)OC1C/C(C)=C/[C@H](O)CC(C)/C=C/[C@@]2(C)CCC(C(C)(C)O)C12` (stereo partly specified), for which the TGI in [2], in [3], in test [4], in [5], in test [6] and in test [7] was more than 100 µM throughout. The TGI in test [8], in test [9] and in [10] was more than 100 µM throughout.

For the compound `CCCCCCCCCCCCOC(=S)NC`, the TGI in test [1] stood at 58 µM; in test [2], 31.5 µM; in test [3], 33.5 µM; in test [4], 32.1 µM; in test [5] it was 15.2 µM; in test [6], 32.8 µM. Moreover, the TGI in [7] is more than 100 µM; in [8], 32 µM; in [9] it was 35.2 µM; in test [10] it was 50.1 µM.

As to `Oc1cccc2nc3cc(CN4CCOCC4)c(CN4CCOCC4)cc3nc12`, the TGI in test [1], in [2], in test [3], in test [4], in test [5] and in [6] was more than 100 µM each time. The TGI in [7], in test [8], in test [9] and in [10] was more than 100 µM each time.

For the compound `C[C@@]1(CBr)C[C@@](C)(/C=C/Cl)[C@@H](Cl)C[C@H]1Cl`, the TGI was found to be 14.5 µM in test [1]; 27.7 µM in [2]; 27.9 µM in test [3]; 19.4 µM in test [4]; 26.1 µM in test [5]; 27.9 µM in test [6]. Further, the TGI in test [7] worked out at 8.6 µM; in test [8], 29.8 µM; in test [9], 25.7 µM; in test [10], 26.4 µM.

As for `COC(=O)C(C(=O)C(=O)Nc1ccc(C)cc1C)c1nc2ccc([N+](=O)[O-])cc2[nH]c1=O` (stereo unspecified), the TGI in test [1], in test [2], in test [3], in test [4], in test [5] and in test [6] was more than 100 µM throughout. The TGI in test [7], in [9] and in test [10] was more than 100 µM in each case.

With `COC(=O)NN=C1C(C)(C)C(=NNC(=O)OC)C1(C)C`, the TGI in [1], in [2], in [3], in test [4], in test [5] and in test [6] was more than 100 µM in each case. In addition, the TGI in test [7], in test [8], in test [9] and in test [10] was more than 100 µM throughout.

Regarding `C=CC[C@@]1(C#N)C[C@H](C[C@]2(C#N)C[C@H](CCl)OC(C)(C)O2)OC(C)(C)O1`, the TGI in test [1], in test [2], in test [3], in test [4], in test [5] and in [6] was more than 100 µM in each case. Moreover, the TGI in test [7], in test [8], in test [9] and in test [10] was more than 100 µM in each case.

Take `COc1ccc2c(c1)Cc1c-2[nH]c2cc3c(cc2c1=O)OCO3`: the TGI in [1] amounted to 35.1 µM; in test [2], 48.5 µM; in [3], 30.6 µM; in test [4] it was 41.9 µM; in [5], 94.3 µM; in [6], 23.5 µM. The TGI in test [7] came out at 29.2 µM; in test [8], 51 µM; in test [9], 30.5 µM; in test [10] it was 58.2 µM.

In the case of `CC(=O)NNc1nc(C)c(C(/C=C/c2ccc(Cl)cc2)=N/NC(=S)NN)s1`, the TGI in test [1], in [2], in test [3], in test [4], in test [5] and in test [6] was more than 100 µM each time. For the same compound, the TGI in test [7], in [9] and in test [10] was more than 100 µM each time.

`C[n+]1ccc2[nH]c3ccccc3c2c1`: the TGI in test [1], in test [2], in test [3], in test [4], in test [5] and in test [6] was more than 100 µM throughout. Moreover, the TGI in test [7], in test [8], in [9] and in [10] was more than 100 µM each time.

Turning to `N#CNc1nc(C(=O)Nc2ccc(Cl)cc2)cc(-c2ccccc2)n1`, the TGI in test [2], in test [3], in [4], in [5], in test [6] and in test [7] was more than 100 µM throughout. The TGI in [8], in test [9] and in [10] was more than 100 µM in each case.

For the compound `NC(=O)N/N=C1/CCCC/C1=C\c1ccccc1`, the TGI in [1], in test [2], in test [3], in test [4], in [5] and in test [6] was more than 100 µM each time. The TGI in test [7], in [8], in [9] and in test [10] was more than 100 µM each time.

Turning to `O=C(Cc1ccccc1)NN1C(=O)C(Cl)C1c1ccccc1` (stereo unspecified), the TGI is 3.93 µM in test [1]; 81.8 µM in test [4]; more than 100 µM in test [5]; more than 100 µM in [6]; more than 100 µM in test [7]; more than 100 µM in test [8]. The TGI in test [9] and in test [10] was more than 100 µM throughout.

Consider `N=C(N)Cn1cnc2ccccc21`, for which the TGI in test [1], in [3], in [4], in test [5], in [6] and in test [7] was more than 100 µM in each case. Also, the TGI in [8], in [9] and in test [10] was more than 100 µM each time.

As to `COC(=O)C1CCC(N2C(=O)CCC2C(=O)OC)=N1` (stereo unspecified), the TGI in [1], in [2], in [4], in [5], in [6] and in test [7] was more than 100 µM each time. Besides, the TGI in test [8], in [9] and in [10] was more than 100 µM in each case.
